Where two headings read alike, the source gives them in different places.
Tests used:
[1] = system: stationary phase B. burgdorferi persisters (strain B31); test: SYBR Green I/PI viability assay (plate reader), FDA-approved drug library screen; settings: for viability at 50 µM: Borreliella burgdorferi, 168 h, read-out: Residual viable cells (regression equation, SYBR Green I/PI assay); for Ratio of Green/Red fluorescence, Primary screening / Ratio of Green/Red fluorescence, Rescreening (first column) / Ratio of Green/Red fluorescence, Rescreening (second column): 7 days, stationary phase
[2] = system: stationary phase B. burgdorferi persisters (strain B31); test: epifluorescence microscope counting after SYBR Green I/PI staining, FDA drug screen; settings: for viability at 50 µM: Borreliella burgdorferi, 168 h, read-out: Residual viable cells (epifluorescence microscope counting)
[3] = system: log phase and stationary phase B. burgdorferi culture; test: Antibiotic exposure assay, SYBR Green I/PI (drugs alone and combinations); settings: Borreliella burgdorferi, 168 h
Description: To qualitatively determine the effect of antibiotics, 10 μL of each compound from the pre-diluted plate or pre-diluted stock was added to stationary phase B. burgdorferi culture in the 96-well plate. The final volume per well was adjusted to 100 μL at a concentration of 10 μg/mL for each antibiotic. Plates were sealed and placed in a 33° C. incubator for 7 days. The SYBR Green I/PI viability assay was used to assess the live and dead cells after antibiotic exposure as described (Feng, Wang, Shi, et al., 2014). Briefly, 10 μL of SYBR Green I (10,000×stock, Invitrogen) was mixed with 30 μL propidium iodide (PI, 20 mM) into 1.0 mL of sterile dH2O. Then, 10 μL of staining mixture was added to each well and mixed thoroughly. The plates were incubated at room temperature in the dark for 15 minutes followed by plate reading at excitation wavelength at 485 nm and the fluorescence intensity at 535 nm (green emission) and 635 nm (red emission) in microplate reader (HTS 7000 plus Bio Assay Reader, PerkinElmer Inc., USA). With least-square fitting analysis, the regression equation and regression curve of the relationship between percentage of live bacteria and green/red fluorescence ratios was obtained. The regression equation was used to calculate the percentage of live cells in each well of the 96-well plate.
To qualitatively determine the effect of antibiotics, 10 μL of each compound (final concentration 50 μM) from the pre-diluted plate or pre-diluted stock was added to round body form or stationary phase B. burgdorferi culture in the 96-well plate. The final volume per well was adjusted to 100 μL. Plates were sealed and placed in a 33° C. incubator for 7 days. The SYBR Green I/PI viability assay was used to assess the live and dead cells after antibiotic exposure as described (Feng, Wang, Shi, et al., 2014). Briefly, 10 μL of SYBR Green I (10,000×stock, Invitrogen) was mixed with 30 μL propidium iodide (PI, 20 mM, Sigma-Aldrich) into 1.0 mL of sterile dH2O. Then, 10 μL staining mixture was added to each well and mixed thoroughly. The plates were incubated at room temperature in the dark for 15 minutes followed by plate reading at excitation wavelength at 485 nm and the fluorescence intensity at 535 nm (green emission) and 635 nm (red emission) in microplate reader (HTS 7000 plus Bio Assay Reader, PerkinElmer Inc., USA). With least-square fitting analysis, the regression equation and regression curve of the relationship between percentage of live and dead bacteria as shown in green/red fluorescence ratios was obtained. The regression equation was used to calculate the percentage of live cells in each well of the 96-well plate.
Round body form and ten day old stationary phase (in brackets) B. burgdorferi culture was treated with 10 μg/mL drugs or their combinations for 7 days. Residual viable B. burgdorferi was calculated according to the regression equation and ratio of Green/Red fluorescence obtained by SYBR Green I/PI assay as described (Feng, Wang, Shi, et al., 2014). Direct microscopy counting was employed to rectify the results of the SYBR Green I/PI assay. […] Abbreviation: Dox, doxcycline; CefP, cefoperazone; DAP, daptomycin; CefM, cefmetazole; Scp, sulfachlorpyridazine; Art, artemisinin; Nft, nitrofurantoin.

[4] = system: S. aureus strains (Newman, USA300, CA-409, CA-127, NY-315); test: Rapid SYBR Green/PI antibiotic susceptibility test; type: cell-based, Staphylococcus aureus
[5] = system: round body form of B. burgdorferi; test: SYBR Green I/PI assay on amoxicillin-induced round body form; settings: for viability at 50 µM: Borreliella burgdorferi, 168 h, read-out: Residual viable cells (SYBR Green I/PI assay)
[6] = system: B. burgdorferi (growing, strain B31); test: MIC determination, standard microdilution method; type: cell-based, Borrelia burgdorferi; settings: MIC test
[7] = read-out: Live Cell % (residual viable B. burgdorferi)
[8] = 50 μM, 7-day old stationary phase cells treated for 7 days

SMILES	viability at 50 µM [1]	viability at 50 µM [2]	Ratio of Green/Red fluorescence, Primary screening ([1]; 50 μM)	Ratio of Green/Red fluorescence, Rescreening (first column) ([1]; 50 μM)	Ratio of Green/Red fluorescence, Rescreening (second column) ([1]; 50 μM)	other results
CN(C)[C@@H]1C(O)=C(C(N)=O)C(=O)[C@@]2(O)C(O)=C3C(=O)c4c(O)cccc4[C@@](C)(O)[C@H]3C[C@@H]12 [Tetracycline]	50%	54%	–	–	–	–
CC[C@H]1OC(=O)[C@H](C)[C@@H](O[C@H]2C[C@@](C)(OC)[C@@H](O)[C@H](C)O2)[C@H](C)[C@@H](O[C@@H]2O[C@H](C)C[C@H](N(C)C)[C@H]2O)[C@](C)(OC)C[C@@H](C)C(=O)[C@H](C)[C@@H](O)[C@]1(C)O [Clarithromycin]	65%	70%	7.70	7.36	7.59	viability at 10 µg/mL ([3]; read-out: Live Cell % (residual viable B. burgdorferi), ten-day-old stationary phase culture enriched with micro-colonies, 10 μg/mL each drug, 7 days): 63%
CC1(C)S[C@@H]2[C@H](NC(=O)C3(N)CCCCC3)C(=O)N2[C@H]1C(=O)O [Cyclacillin]	53%	51%	6.81	6.88	7.64	–
NC[C@H]1O[C@H](O[C@H]2[C@H](O)[C@@H](O[C@H]3O[C@H](CO)[C@@H](O)[C@H](N)[C@H]3O)[C@H](N)C[C@@H]2N)[C@H](O)[C@@H](O)[C@@H]1O [kanamycin]	–	–	–	–	–	cut-off (averaged proportion of killed cells) for resistant strains ([4]; 100 μg/mL, 1.5 hours): −0.01; cut-off (averaged proportion of killed cells) for susceptible strains ([4]; 100 μg/mL, 1.5 hours): −0.2; percent killed, resistant strain CA-127 ([4]; 30 minutes, kanamycin 25, ciprofloxacin 50 μg/mL): 5%; percent killed, resistant strain CA-409 ([4]; 30 minutes, kanamycin 25, ciprofloxacin 50, gentamicin 400 μg/mL): 5%; percent killed, resistant strain NY-315 ([4]; 30 minutes, kanamycin 25, erythromycin 400 μg/mL): 5%; percent killed, sensitive Newman strain ([4]; 30 minutes, kanamycin 25, erythromycin 400, ciprofloxacin 50, gentamicin 400 μg/mL): 27%
CN[C@H](CC(C)C)C(=O)N[C@H]1C(=O)N[C@@H](CC(N)=O)C(=O)N[C@H]2C(=O)N[C@H]3C(=O)N[C@H](C(=O)N[C@H](C(=O)O)c4cc(O)cc(O)c4-c4cc3ccc4O)[C@H](O)c3ccc(c(Cl)c3)Oc3cc2cc(c3O[C@@H]2O[C@H](CO)[C@@H](O)[C@H](O)[C@H]2O[C@H]2C[C@](C)(N)[C@H](O)[C@H](C)O2)Oc2ccc(cc2Cl)[C@H]1O [Vancomycin]	38%	48%	6.65	6.58	6.37	viability at 10 µg/mL [3, 7]: 64%; viability at 50 µM [5]: 38%
CC(=O)OCC1=C(C(=O)O)N2C(=O)[C@@H](NC(=O)Cc3cccs3)[C@H]2SC1 [Cephalothin]	40%	49%	6.74	6.49	6.55	–
Nc1nc(/C(=C/CC(=O)O)C(=O)N[C@@H]2C(=O)N3C(C(=O)O)=CCS[C@H]23)cs1 [Ceftibuten]	49%	51%	6.81	6.78	7.27	–
CN(C)CCn1nnnc1SCC1=C(C(=O)O)N2C(=O)[C@@H](NC(=O)Cc3csc(N)n3)[C@H]2SC1 [Cefotiam]	43%	42%	6.41	7.55	6.21	sensitivity of log phase / multiplying B. burgdorferi (words, FIG. 12) [6]: very sensitive
CO/N=C(\C(=O)N[C@@H]1C(=O)N2C(C(=O)O)=C(COC(N)=O)CS[C@H]12)c1ccco1 [Cefuroxime]	43%	49%	6.59	6.84	6.67	viability at 50 µM [5]: 34%; Ratios of green/red fluorescence, Primary screening ([5]; round body form, 50 μM, 7 days): 6.29; Ratios of green/red fluorescence, Rescreening (first column) ([5]; round body form, 50 μM, 7 days): 6.28; Ratios of green/red fluorescence, Rescreening (second column) ([5]; round body form, 50 μM, 7 days): 6.31
CC1(C)S[C@@H]2[C@H](NC(=O)Cc3ccccc3)C(=O)N2[C@H]1C(=O)O [Penicillin G]	–	–	7.41	7.68	7.92	Residual viable cells (regression equation, SYBR Green I/PI assay) [1, 8]: 68%; Ratios of green/red fluorescence, Primary screening ([5]; round body form, 50 μM, 7 days): 6.33; Ratios of green/red fluorescence, Rescreening (first column) ([5]; round body form, 50 μM, 7 days): 6.51; Ratios of green/red fluorescence, Rescreening (second column) ([5]; round body form, 50 μM, 7 days): 6.33; Residual viable cells (SYBR Green I/PI assay) ([5]; round body form, 50 μM, 7 days): 38%; Residual viable cells (epifluorescence microscope counting) [2, 8]: 75%
CN(C)c1cc(NC(=O)CNC(C)(C)C)c(O)c2c1C[C@H]1C[C@H]3[C@H](N(C)C)C(O)=C(C(N)=O)C(=O)[C@@]3(O)C(O)=C1C2=O [Tigecycline]	51%	58%	6.98	7.06	6.96	viability at 10 µg/mL [3, 7]: 67%
CC[C@H]1OC(=O)[C@H](C)[C@@H](O[C@H]2C[C@@](C)(OC)[C@@H](O)[C@H](C)O2)[C@H](C)[C@@H](O[C@@H]2O[C@H](C)C[C@H](N(C)C)[C@H]2O)[C@](C)(O)C[C@@H](C)CN(C)[C@H](C)[C@@H](O)[C@]1(C)O [Azithromycin]	80%	77%	8.33	8.10	7.92	viability at 50 µM [5]: 47%; Ratios of green/red fluorescence, Primary screening ([5]; round body form, 50 μM, 7 days): 6.79; Ratios of green/red fluorescence, Rescreening (first column) ([5]; round body form, 50 μM, 7 days): 6.52; Ratios of green/red fluorescence, Rescreening (second column) ([5]; round body form, 50 μM, 7 days): 6.42
